Test results published in ChEMBL document CHEMBL4130418, “From dual binding site acetylcholinesterase inhibitors to allosteric modulators: A new avenue for disease-modifying drugs in Alzheimer's disease” (Eur J Med Chem, 2017).
The source made the active and inactive calls. The calls are words filed in the database; no cut-off is given here.

Tests used:
Acetylcholinesterase [1] = biological target: T1, Acetylcholinesterase (Homo sapiens, UniProt P22303); assay: Inhibition of human AChE using acetylthiocholine iodide as substrate preincubated for 5 mins followed by substrate addition measured over 5 mins by UV-Vis spectrophotometric analysis
T1 sequence (P22303 whole entry): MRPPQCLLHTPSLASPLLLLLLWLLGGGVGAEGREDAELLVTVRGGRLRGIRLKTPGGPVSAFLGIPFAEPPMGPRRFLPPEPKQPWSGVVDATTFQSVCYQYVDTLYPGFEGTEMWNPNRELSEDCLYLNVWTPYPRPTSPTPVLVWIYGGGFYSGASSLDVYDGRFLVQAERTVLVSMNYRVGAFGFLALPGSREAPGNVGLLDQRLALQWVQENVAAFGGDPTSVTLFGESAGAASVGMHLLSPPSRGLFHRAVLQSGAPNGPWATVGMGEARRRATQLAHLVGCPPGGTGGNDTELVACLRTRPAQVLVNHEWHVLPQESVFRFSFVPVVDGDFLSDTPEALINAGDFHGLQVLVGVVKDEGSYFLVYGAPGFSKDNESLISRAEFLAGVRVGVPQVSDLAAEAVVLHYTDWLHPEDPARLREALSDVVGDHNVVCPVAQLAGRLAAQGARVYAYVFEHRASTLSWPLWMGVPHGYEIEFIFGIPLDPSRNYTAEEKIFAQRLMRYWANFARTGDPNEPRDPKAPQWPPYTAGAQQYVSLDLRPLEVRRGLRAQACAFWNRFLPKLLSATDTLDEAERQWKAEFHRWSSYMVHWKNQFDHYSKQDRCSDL

Cholinesterase = Cholinesterase (Homo sapiens, UniProt P06276); assay: Inhibition of human serum BuChE using butyrylthiocholine iodide as substrate preincubated for 5 mins followed by substrate addition measured over 5 mins by UV-Vis spectrophotometric analysis
Sequence of Cholinesterase (P06276 whole entry): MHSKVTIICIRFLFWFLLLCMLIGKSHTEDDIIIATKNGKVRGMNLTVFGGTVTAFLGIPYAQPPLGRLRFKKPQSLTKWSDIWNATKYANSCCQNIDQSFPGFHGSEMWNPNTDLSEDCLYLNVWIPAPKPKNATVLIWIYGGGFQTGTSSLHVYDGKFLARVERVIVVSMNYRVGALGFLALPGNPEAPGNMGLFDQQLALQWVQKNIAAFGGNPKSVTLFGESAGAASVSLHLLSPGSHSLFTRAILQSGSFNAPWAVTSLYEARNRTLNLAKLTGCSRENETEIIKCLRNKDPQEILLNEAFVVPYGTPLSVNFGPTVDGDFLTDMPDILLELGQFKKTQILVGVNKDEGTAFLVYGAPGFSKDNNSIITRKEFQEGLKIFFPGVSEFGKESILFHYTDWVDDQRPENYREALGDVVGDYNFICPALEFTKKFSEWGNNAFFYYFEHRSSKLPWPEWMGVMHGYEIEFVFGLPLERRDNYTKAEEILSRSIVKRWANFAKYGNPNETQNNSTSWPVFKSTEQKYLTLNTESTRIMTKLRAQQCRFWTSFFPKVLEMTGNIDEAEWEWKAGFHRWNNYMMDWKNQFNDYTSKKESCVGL

SH-SY5Y [2] = assay: Induction of neuronal differentiation in human SH-SY5Y cells assessed as extensive neurites formation at 0.014 uM followed by culture medium replacement for every three days for 10 days by inverted-phase microscopic analysis; format: functional, cell-based
SH-SY5Y [3] = assay: Induction of neuronal differentiation in human SH-SY5Y cells assessed as neurite bearing cells at 0.014 uM followed by culture medium replacement for every three days for 10 days by inverted-phase microscopic analysis relative to control; format: functional
SH-SY5Y [4] = assay: Cytotoxicity against human SH-SY5Y cells assessed as reduction in cell viability at 0.056 uM after 24 hrs by XTT assay; format: cell-based
SH-SY5Y [5] = assay: Cytoprotection against amyloid beta (1 to 42) peptide induced cell death in human SH-SY5Y cells assessed as increase in clonogenic survival after 24 hrs by Giemsa staining-based inverted microscopic analysis; format: functional; conditions: read-out: MEC
[6] = biological target: Acetylcholinesterase (Electrophorus electricus) (UniProt O42275); assay: Binding affinity to electric eel AChE in presence fixed dose of donepezil by STD NMR spectroscopy method
Sequence of Acetylcholinesterase (Electrophorus electricus) (O42275 24-633 limits assumed): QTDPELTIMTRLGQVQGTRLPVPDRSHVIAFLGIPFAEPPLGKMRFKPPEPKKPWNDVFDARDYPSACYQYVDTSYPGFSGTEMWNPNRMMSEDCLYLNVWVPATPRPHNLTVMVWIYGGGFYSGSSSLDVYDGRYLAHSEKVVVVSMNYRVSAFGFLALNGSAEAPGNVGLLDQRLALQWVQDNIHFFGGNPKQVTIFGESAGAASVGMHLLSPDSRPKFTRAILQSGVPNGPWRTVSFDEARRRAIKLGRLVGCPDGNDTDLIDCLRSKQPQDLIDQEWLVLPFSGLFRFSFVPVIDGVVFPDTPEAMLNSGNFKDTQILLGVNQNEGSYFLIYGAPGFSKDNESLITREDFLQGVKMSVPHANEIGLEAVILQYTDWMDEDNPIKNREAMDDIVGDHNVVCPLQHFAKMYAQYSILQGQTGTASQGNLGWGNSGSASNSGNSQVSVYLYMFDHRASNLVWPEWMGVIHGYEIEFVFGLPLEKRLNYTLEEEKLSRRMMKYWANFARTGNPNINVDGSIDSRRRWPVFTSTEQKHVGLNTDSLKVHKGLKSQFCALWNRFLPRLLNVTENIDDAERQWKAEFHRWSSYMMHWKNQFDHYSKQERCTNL

HepG2 [7] = assay: Cytotoxicity against human HepG2 cells assessed as reduction in cell viability at 0.0035 to 0.224 uM after 24 hrs by XTT assay; format: cell-based; conditions: hepg2, 24 h
Acetylcholinesterase [8] = biological target: T1, Acetylcholinesterase; assay: Noncompetitive inhibition of human AChE using acetylthiocholine iodide as substrate preincubated for 5 mins followed by substrate addition measured over 5 mins by Lineweaver-Burk plot analysis
[9] = biological target: Acetylcholinesterase (Electrophorus electricus) (UniProt O42275); assay: Binding affinity to electric eel AChE in presence of 80 to 1216 uM donepezil by STD NMR spectroscopy method
SH-SY5Y [10] = assay: Induction of neuronal differentiation in human SH-SY5Y cells assessed as decrease in cell proliferation at 0.014 uM followed by culture medium replacement for every three days for 10 days by inverted-phase microscopic analysis; format: functional, cell-based
Acetylcholinesterase [11] = biological target: T1, Acetylcholinesterase; assay: Mixed-type inhibition of human AChE using acetylthiocholine iodide as substrate preincubated for 5 mins followed by substrate addition measured over 5 mins by Lineweaver-Burk plot analysis
SH-SY5Y [12] = assay: Induction of neuronal differentiation in human SH-SY5Y cells assessed as extensive neurites formation at 0.13 uM followed by culture medium replacement for every three days for 10 days by inverted-phase microscopic analysis; format: functional, cell-based
SH-SY5Y [13] = assay: Cytotoxicity against human SH-SY5Y cells assessed as reduction in cell viability at 2.84 uM after 24 hrs by XTT assay; format: cell-based
SH-SY5Y [14] = assay: Induction of neuronal differentiation in human SH-SY5Y cells assessed as decrease in cell proliferation at 0.13 uM followed by culture medium replacement for every three days for 10 days by inverted-phase microscopic analysis; format: functional, cell-based
SH-SY5Y [15] = assay: Induction of neuronal differentiation in human SH-SY5Y cells assessed as neurite bearing cells at 0.13 uM followed by culture medium replacement for every three days for 10 days by inverted-phase microscopic analysis relative to control; format: functional
HepG2 [16] = assay: Cytotoxicity against human HepG2 cells assessed as reduction in cell viability at 2.84 to 5.68 uM after 24 hrs by XTT assay; format: cell-based; conditions: hepg2, 24 h

Compound: [N-]=[N+]=Nc1cc(CN2CCC(C=O)CC2)nc2ccccc12
- IC50 (Acetylcholinesterase [1]): > 10 µM
- IC50 (Cholinesterase): > 10 µM

Compound: COc1cc2c(cc1OC)C(=O)/C(=C/C1CCN(Cc3cc(N)c4ccccc4n3)CC1)C2
- Activity (SH-SY5Y [2]): Active
- IC50 (Acetylcholinesterase [1]): 0.014 µM
- Activity (SH-SY5Y [3]): 55%
- Activity (SH-SY5Y [4]): Toxic
- minimal effective concentration (SH-SY5Y [5]): 0.0035 µM
- Activity [6]: Active
- Activity (HepG2 [7]): Non-Toxic
- inhibition (Acetylcholinesterase [8]): Active
- Activity [9]: Active
- Activity (SH-SY5Y [10]): Active
- IC50 (Cholinesterase): 3.69 µM

Compound: O=CC1CCN(Cc2cc(Cl)c3ccccc3n2)CC1
- IC50 (Acetylcholinesterase [1]): > 10 µM
- IC50 (Cholinesterase): > 10 µM

Compound: COc1cc2c(cc1OC)C(=O)/C(=C/C1CCN(Cc3cc(N=[N+]=[N-])c4ccccc4n3)CC1)C2
- IC50 (Acetylcholinesterase [1]): 4.88 µM
- Activity [9]: inactive
- inhibition (Acetylcholinesterase [11]): Active
- IC50 (Cholinesterase): > 10 µM

Compound: COc1cc2c(cc1OC)C(=O)C(CC1CCN(Cc3cc(N)c4ccccc4n3)CC1)C2 (stereo not drawn)
- Activity (SH-SY5Y [12]): Active
- IC50 (Acetylcholinesterase [1]): 0.71 µM
- minimal effective concentration (SH-SY5Y [5]): 0.088 µM
- Activity (SH-SY5Y [13]): Toxic
- Activity (SH-SY5Y [14]): Active
- Activity (SH-SY5Y [15]): 43%
- IC50 (Cholinesterase): 6.54 µM
- Activity (HepG2 [16]): Non-Toxic

Compound: COc1cc2c(cc1OC)C(=O)/C(=C/C1CCN(Cc3cc(Cl)c4ccccc4n3)CC1)C2
- IC50 (Acetylcholinesterase [1]): > 10 µM
- IC50 (Cholinesterase): > 10 µM

Compound: COc1cc2c(cc1OC)C(=O)C(CC1CCN(Cc3cc(Cl)c4ccccc4n3)CC1)C2 (stereo not drawn)
- IC50 (Acetylcholinesterase [1]): > 10 µM
- IC50 (Cholinesterase): 5.99 µM

Compound: OCC1CCN(Cc2cc(Cl)c3ccccc3n2)CC1
- IC50 (Acetylcholinesterase [1]): > 10 µM
- IC50 (Cholinesterase): > 10 µM
